Values of other authors as cited in patent US9637723B2, “Generation of functional and durable endothelial cells from human amniotic fluid-derived cells” (Cornell University, priority 2012, dated 2017).
Where two headings read alike, the source gives them in different places.

Biological target: T1, ALK5 (Homo sapiens, UniProt P36897)
T1 sequence (P36897 34-503): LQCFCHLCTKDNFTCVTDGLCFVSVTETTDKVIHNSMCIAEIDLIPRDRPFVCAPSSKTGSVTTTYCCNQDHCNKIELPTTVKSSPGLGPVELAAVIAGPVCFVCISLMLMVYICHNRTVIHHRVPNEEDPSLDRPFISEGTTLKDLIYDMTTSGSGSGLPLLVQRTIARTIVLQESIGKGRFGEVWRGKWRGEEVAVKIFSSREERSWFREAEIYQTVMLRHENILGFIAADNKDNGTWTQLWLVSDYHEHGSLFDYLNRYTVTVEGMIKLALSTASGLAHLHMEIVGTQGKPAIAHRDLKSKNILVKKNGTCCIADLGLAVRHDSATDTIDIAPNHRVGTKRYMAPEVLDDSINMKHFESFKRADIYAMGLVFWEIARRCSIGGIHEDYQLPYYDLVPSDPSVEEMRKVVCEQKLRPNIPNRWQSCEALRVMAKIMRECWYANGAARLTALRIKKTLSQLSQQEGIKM

[1] = as listed for compounds available through Tocris Bioscience

| Function | SMILES | Function [1] |
| --- | --- | --- |
| – | Cc1cccc(-c2n[nH]cc2-c2ccc3ncccc3n2)n1 [SJN 2511, 2-(3-(6-Methylpyridine-2-yl)-1H-pyrazol-4-yl)-1,5-naphthyridine] | (Selective inhibitor of ALK5) |
| (Selective inhibitor of ALK5) | c1ccc(-c2n[nH]cc2-c2ccnc3ccccc23)nc1 [LY 364947, 4-[3-(2-Pyridinyl)-1H-pyrazol-4-yl]-quinoline] | – |
| – | Cc1cccc(-c2nn(C(=S)Nc3ccccc3)cc2-c2ccnc3ccccc23)n1 [A 83-01, 3-(6-Methyl-2-pyridinyl)-N-phenyl-4-(4-quinolinyl)-1H-pyrazole-1-carbothioamide] | (Selective inhibitor of ALK5, ALK4 and ALK7) |
